Activity calls are given as the source filed them. The calls are words filed in the database; no cut-off is given here.
Experiments:
[1] = test system: RAW264.7; assay: Antiinflammatory activity in mouse RAW264.7 cells assessed as decrease in LPS-induced IL-6 level at 10^-3 M by ELISA; format: functional; design: scale not given: the % may be the effect or the level left
[2] = test system: RAW264.7; assay: Inhibition of LPS-induced ROS generation in mouse RAW264.7 cells at 0.5 x 10^-3 to 10^-3 M after 24 hrs by DCFDA staining-based fluorescence microscopy; format: functional, cell-based
[3] = test system: RAW264.7; assay: Inhibition of LPS-stimulated NFkappaB/MAPK signaling activation in mouse RAW264.7 cells assessed as increase in IkappaB protein level after 24 hrs by Western blot analysis; format: cell-based
[4] = test system: RAW264.7; assay: Inhibition of LPS-stimulated NFkappaB/MAPK signaling activation in mouse RAW264.7 cells assessed as decrease in phosphorylated c-Jun protein level at 0.5 x 10^-3 to 10^-3 M after 24 hrs by Western blot analysis; format: cell-based
[5] = test system: RAW264.7; assay: Inhibition of LPS-stimulated NFkappaB/MAPK signaling activation in mouse RAW264.7 cells assessed as decrease in JunB protein level at 0.5 x 10^-3 to 10^-3 M after 24 hrs by Western blot analysis; format: cell-based
[6] = test system: RAW264.7; assay: Antiinflammatory activity in mouse RAW264.7 cells assessed as decrease in LPS-induced IL-8 level at 10^-3 M by ELISA; format: functional; design: scale not given: the % may be the effect or the level left
[7] = test system: RAW264.7; assay: Anti-inflammatory activity in mouse RAW264.7 cells assessed as inhibition of LPS-induced iNOS level at 10^-3 M by Western blot analysis; format: functional, cell-based
[8] = test system: RAW264.7; assay: Inhibition of LPS-induced morphological changes in mouse RAW264.7 cells at 0.5 x 10^-3 to 10^-3 M after 24 hrs by […] fluorescence microscopy; format: functional, cell-based
[9] = test system: RAW264.7; assay: Antiinflammatory activity in mouse RAW264.7 cells assessed as decrease in LPS-induced TNF-alpha level at 10^-3 M by ELISA; format: functional; design: scale not given: the % may be the effect or the level left
[10] = test system: RAW264.7; assay: Anti-inflammatory activity in mouse RAW264.7 cells assessed as inhibition of LPS-induced IL-8 mRNA expression at 10^-3 M after 24 hrs by qRT-PCR analysis; format: functional; conditions: RAW264.7, 24 h
[11] = test system: RAW264.7; assay: Antiinflammatory activity against mouse RAW264.7 cells assessed as inhibition of LPS-induced nitric oxide production after 24 hrs by Griess assay; format: functional, cell-based
[12] = test system: RAW264.7; assay: Anti-inflammatory activity in mouse RAW264.7 cells assessed as inhibition of LPS-induced IL-1beta mRNA expression at 10^-3 M after 24 hrs by qRT-PCR analysis; format: functional; conditions: RAW264.7, 24 h
[13] = molecular target: Mitogen-activated protein kinase 1 and 3 (ERK2 and ERK1) (Mus musculus) (UniProt P63085+Q63844); assay: Inhibition of LPS-induced ERK-1/2 phosphorylation in mouse RAW264.7 cells at 0.5 x 10^-3 to 10^-3 M after 24 hrs by Western blot analysis; format: cell-based
[14] = test system: RAW264.7; assay: Inhibition of LPS-stimulated NFkappaB/MAPK signaling activation in mouse RAW264.7 cells assessed as decrease in phosphorylated IKK protein level level after 24 hrs by Western blot analysis; format: cell-based
[15] = test system: RAW264.7; assay: Anti-inflammatory activity in mouse RAW264.7 cells assessed as inhibition of LPS-induced TNF-alpha mRNA expression at 10^-3 M after 24 hrs by qRT-PCR analysis; format: functional; conditions: RAW264.7, 24 h
[16] = test system: RAW264.7; assay: Anti-inflammatory activity in mouse RAW264.7 cells assessed as inhibition of LPS-induced iNOS mRNA expression at 10^-3 M by qRT-PCR analysis; format: functional, cell-based
[17] = test system: RAW264.7; assay: Antiinflammatory activity in mouse RAW264.7 cells assessed as decrease in LPS-induced IL-1beta level at 10^-3 M by ELISA; format: functional; design: scale not given: the % may be the effect or the level left
[18] = molecular target: MAP kinase p38 (Mus musculus) (UniProt P47811+O08911+Q9WUI1+Q9Z1B7); assay: Inhibition of LPS-induced p38 phosphorylation in mouse RAW264.7 cells at 0.5 x 10^-3 to 10^-3 M after 24 hrs by Western blot analysis; format: cell-based
[19] = test system: RAW264.7; assay: Inhibition of LPS-induced JNK-phosphorylation in mouse RAW264.7 cells at 0.5 x 10^-3 to 10^-3 M after 24 hrs by Western blot analysis; format: cell-based
[20] = test system: RAW264.7; assay: Inhibition of LPS-induced ROS generation in mouse RAW264.7 cells at 0.5 x 10^-3 to 10^-3 M after 24 hrs by DCFDA staining-based flow cytometric analysis; format: functional, cell-based
[21] = test system: RAW264.7; assay: Anti-inflammatory activity in mouse RAW264.7 cells assessed as inhibition of LPS-induced IL-6 mRNA expression at 10^-3 M after 24 hrs by qRT-PCR analysis; format: functional; conditions: RAW264.7, 24 h

Sequence of Mitogen-activated protein kinase 1 and 3 (ERK2 and ERK1) (Mus musculus) (P63085 whole entry, looked up): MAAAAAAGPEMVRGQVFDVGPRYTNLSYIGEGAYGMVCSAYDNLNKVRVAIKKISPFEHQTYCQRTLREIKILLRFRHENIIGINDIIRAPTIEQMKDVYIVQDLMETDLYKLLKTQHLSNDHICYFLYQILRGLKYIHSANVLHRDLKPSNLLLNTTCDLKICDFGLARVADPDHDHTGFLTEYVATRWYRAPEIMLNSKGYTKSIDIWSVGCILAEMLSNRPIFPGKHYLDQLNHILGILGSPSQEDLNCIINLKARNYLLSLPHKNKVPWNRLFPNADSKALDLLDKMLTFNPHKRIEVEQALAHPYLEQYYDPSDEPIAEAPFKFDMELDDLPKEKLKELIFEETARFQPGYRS
Sequence of Mitogen-activated protein kinase 1 and 3 (ERK2 and ERK1) (Mus musculus) (Q63844 whole entry, looked up): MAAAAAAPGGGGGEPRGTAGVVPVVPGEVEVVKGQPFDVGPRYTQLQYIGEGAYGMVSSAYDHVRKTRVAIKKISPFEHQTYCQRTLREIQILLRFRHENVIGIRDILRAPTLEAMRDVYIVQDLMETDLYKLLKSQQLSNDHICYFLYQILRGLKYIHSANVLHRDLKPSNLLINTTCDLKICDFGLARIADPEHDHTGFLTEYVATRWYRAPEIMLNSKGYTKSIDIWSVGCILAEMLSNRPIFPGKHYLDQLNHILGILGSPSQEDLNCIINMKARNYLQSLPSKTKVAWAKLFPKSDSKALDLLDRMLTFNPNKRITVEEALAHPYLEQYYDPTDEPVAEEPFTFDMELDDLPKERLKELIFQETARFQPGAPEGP

CC1(C)[C@@H](O[C@H]2O[C@H](C(=O)[O-])[C@@H](O)[C@H](O)[C@H]2O[C@@H]2O[C@H](C(=O)[O-])[C@@H](O)[C@H](O)[C@H]2O)CC[C@]2(C)[C@H]3C(=O)C=C4[C@@H]5C[C@@](C)(C(=O)O)CC[C@]5(C)CC[C@@]4(C)[C@]3(C)CC[C@@H]12.O.O.O.O.[Mg+2]
Activity [1]: 28.7% | inhibition [2]: Active | inhibition [3]: Dose-dependent effect | inhibition [4]: Active | inhibition [5]: Active | Activity [6]: 49.3% | inhibition [7]: Active | inhibition [8]: Active | Activity [9]: 17.3% | inhibition at 1000 µM [10]: 88.4% | inhibition [11]: Dose-dependent effect | inhibition at 1000 µM [12]: 61.7% | inhibition [13]: Active | inhibition [14]: Dose-dependent effect | inhibition at 1000 µM [15]: 48.6% | inhibition [16]: Active | Activity [17]: 33.6% | inhibition [18]: Active | inhibition [19]: Active | inhibition [20]: Active | inhibition at 1000 µM [21]: 46.2%

From ChEMBL document CHEMBL4330126 (2019)
